{"source": "patent US12298308B2", "about": "“Neoadjuvant chemotherapy induces breast cancer metastasis through a TMEM-mediated mechanism” (Albert Einstein College of Medicine, priority 2017, dated 2025)", "key": {"[1]": {"test_system": "circulating tumor cells", "test": "Circulating tumor cells per mL of blood", "type": "in vivo, mouse", "conditions": "PyMT-transplantation and HT17 xenograft", "procedure": "(§1) Drug Administration. The following drugs were administered in mice: Paclitaxel was given at 10 mg/Kg i.v every 5 days for 2 weeks; Doxorubicin was given at 5 mg/Kg i.v. every 5 days for 2 weeks; Cyclophosphamide was given at 120 mg/Kg i.p. only once; Rebastinib was given at 10 mg/Kg per os, every 3-4 days for 4 weeks.\nCirculating Tumor Cells. Mice were anesthetized with 3.5-4.5% isoflurane, and blood was taken from the right ventricle by heart puncture, using 25G needles coated with heparin. Erythrocytes were lysed, using 10 ml of 1×RBC lysis buffer (multi-species, eBioscience). Cancer cells were quantified, as previously described (31, 60)."}, "[2]": {"test_system": "Tie2^hi/Vegf^hi macrophages", "test": "Macrophage infiltration by multi-channel immunofluorescence (Iba1, Cd31, Tie2, Vegf)", "type": "in vivo, mouse", "from_the_text": "The functional TMEM sites contain Tie2^hi/Vegf^hi macrophages and invasive tumor cells in perivascular regions (1), and it was independently shown that chemotherapy may promote mobilization of such Tie2^hi monocyte progenitors in primary tumors (8, 10). The Tie2^hi/Vegf^hi macrophage subpopulation was quantified herein using multi-channel immunofluorescence (IF) imaging (FIGS. 1D-F) (10, 14, 34). FIG. 1E illustrates a representative IF image of a Tie2^hi/Vegf^hi macrophage quantified using Cd31, Iba1, Vegf and Tie2 staining.\nas §1\n(§2) Animals and Animal Procedures. MMTV-PyMT mice were bred in-house at the Albert Einstein College of Medicine (AECOM). Generation of MMTV-PyMT Mena^−/− has been described previously (28). CFP- or Dendra2-labeled mammary carcinoma cells were generated on the FVB background by co-injection of Tg(MMTV-iCRE)1jwp together with Tg(PCAG-loxp-CATstop-loxp-CFP) or Tg(loxP-stop-loxP-PDendra2)jwp plasmids, respectively, by conventional methods in the Albert Einstein Transgenic Mouse Facility. All syngeneic transplantation models were generated through orthotopic transplantation of 1 mm×1 mm tumor chunks, using tumors of 1 cm-diameter from 12-16-week old MMTV-PyMT mena−/− or mena+/+ donor mice into 5-6 week-old FVB recipients. Tumor chunks were implanted on the fourth mammary pad on the left side. The generation of the ER^− HT17 and ER^+ HT33 patient-derived xenografts has been described previously (31). Animal handling and associated procedures were approved by the Institutional Animal Care and Use Committee (IACUC). Additional information is detailed in Supplementary Methods.\nImmunofluorescence. Slides were deparaffinized by melting at 60° C. in an oven equipped with a fan for 20 minutes, followed by 2× xylene treatment for 20 minutes. Slides were rehydrated and antigen retrieval was done in 1 mM EDTA (pH 8.0) or 1× citrate buffer (pH 6.0) (Diagnostic BioSystems) at 97° C. for 20 minutes in a conventional steamer. Endogenous peroxidase was blocked by using 0.3% hydrogen peroxide in water, followed by incubation of slides in a blocking buffer solution (10% FBS, 1% BSA, 0.0025% fish skin gelatin in 0.05% PBST) for 60 minutes at room temperature. The following primary antibodies were used in different combinations, depending on the experiment: chicken anti-Mena^INV (0.25 ug/mL, generated in-house in the lab of John S. Condeelis), rabbit anti-Cd31 (1:400; 77699s; Cell Signaling), rabbit anti-Vegf (1:2,000; Rb 9031-PO-A; Thermo), rat anti-Tie2 (1:100; 16-5987-82; eBioscience), rabbit anti-Iba1 (1:6,000; 019-19741; Wako), rat anti-endomucin (1:500; sc-65495; Santa Cruz), rabbit anti-TMR (1:1,000; A-6397; Life Technologies). Secondary antibody treatment was performed using HRP-conjugated antibodies, and was followed by tyramide signal amplification (TSA), using the Perkin Elmer; Opal™ 4-color Fluorescent IHC kit, according to the manufacturer's directions. All slides were imaged on the Pannoramic 250 Flash II digital whole slide scanner, using a 20×0.75NA objective lens. Image analysis was performed in ImageJ, detailed in Supplementary Methods."}, "[3]": {"test_system": "TMEM", "test": "Intravital imaging of TMEM-dependent vascular permeability (bursting)", "type": "in vivo, mouse", "conditions": "co-administration of rebastinib in paclitaxel-treated mice; intravital imaging", "from_the_text": "Paclitaxel Induces TMEM-Dependent Vascular Permeability in Breast Tumors—Given that chemotherapy treatment may affect blood vessel dynamics by inducing angiogenesis (9, 11-13, 35-37), intravital imaging (IVI) (FIG. 2A) was used to investigate whether neoadjuvant paclitaxel induces TMEM-dependent (localized) or TMEM-independent (more universal) blood vessel leakage. […] As also reported previously (1), we never observed any bursting incidents without juxtaposition to a clearly defined TMEM site. Bursting was documented by the accumulation of Dextran-TMR signal over time around an active TMEM site, and no such accumulation was observed away from TMEM (FIGS. 2B-C). The entire time-lapse of these was recorded in videos, respectively. The intensity values from all TMEM-mediated bursting incidents observed in paclitaxel-treated mice were averaged and plotted over the entire time of bursting activity (FIG. 2D), which confirmed the transient nature of paclitaxel-induced TMEM-dependent vascular permeability.\nas §1\nIntravital Imaging. Intravital imaging was performed using a custom-built two-laser multiphoton microscope, as previously described (57). Mice were anesthetized using 0.75-2.5% isofluorane, depilated. A skin flap procedure, previously developed (58), was performed by exposing the 4th or 5th mammary fat pad. Given the early stage of carcinoma and small tumor size, this necessitated the development of a custom fixturing technique where the exposed tissue was stabilized by affixing the edge of a 10-mm window fitted with an 8-mm clear aperture respectively with cyanoacrylate. The mouse was then placed on a fixturing plate, fitted to the respective window, on the microscope xy stage and imaging was performed in the center of the window away from the glue. The animal was placed in a heated chamber, AirTherm ATX forced air heater (WPI Inc.), maintained at physiologic temperature during the course of imaging, and supplemented with 50-100 uL of PBS per hour via the tail vein catheter. As previously described (1), three milligrams of 155-kDa TMR-dextran (Sigma) were administered via the catheter to visualize the vasculature. All images were reconstructed and analyzed in ImageJ (59), as described in Supplementary Methods."}, "[4]": {"test_system": "TMEM", "test": "TMEM score by triple-stain immunohistochemistry in mouse breast tumors", "type": "in vivo", "from_the_text": "This hypothesis was investigated in the following breast carcinoma models: (i) transgenic MMTV-PyMT mice bearing spontaneous breast tumors, (ii) FVB mice transplanted orthotopically with tumors from MMTV-PyMT donors, and (iii) two patient-derived xenografts (PDX), HT17 and HT33, developed previously in our laboratory (31). […] Treatment of all groups began at the early carcinoma stage (tumor size of ˜0.3 cm) when there is minimal or absent necrosis. It was decided to work with the early-stage PyMT mouse mammary carcinoma model because it more accurately reflects clinically relevant scenarios where most women present with small tumors of <2 cm (32).\nas §1, §2\nHistology and TMEM Immunohistochemistry. Breast tumors and lungs were isolated, rinsed in PBS, fixed in 10% neutral buffered formalin for 48 hours, dehydrated and embedded in paraffin. Sections (5 μm) were stained with H & E or TMEM triple-stain immunohistochemistry, as previously described (3)."}, "[5]": {"conditions": "rebastinib in paclitaxel-treated animals"}, "[6]": {"conditions": "single agent vs vehicle, PyMT-transplantation and HT17 xenograft"}}, "data": [{"smiles": "CNC(=O)c1cc(Oc2ccc(NC(=O)Nc3cc(C(C)(C)C)nn3-c3ccc4ncccc4c3)c(F)c2)ccn1", "note": "[rebastinib, 4-[4-[(5-tert-butyl-2-quinolin-6-ylpyrazol-3-yl)carbamoylamino]-3-fluorophenoxy]-N-methylpyridine-2-carboxamide]", "values": [{"measurement": "circulating tumor cells", "setting": "[1]; [5]", "result": "decreased circulating tumor cells to the level observed in the control animals"}, {"measurement": "number of CTCs (TMEM activity)", "setting": "[1]; single agent vs vehicle", "result": "reduced"}, {"measurement": "number of perivascular Tie2^hi/Vegf^hi macrophages", "setting": "[2]; [5]", "result": "decreased"}, {"measurement": "density of perivascular Tie2^hi/Vegf^hi macrophages", "setting": "[2]; [6]", "result": "did not significantly affect"}, {"measurement": "frequency of bursting", "setting": "[3]", "result": "completely abolished"}, {"measurement": "incidence of bursting", "setting": "[3]", "result": "completely abolished"}, {"measurement": "TMEM assembly", "setting": "[4]; [5]", "result": "without affecting"}, {"measurement": "overall TMEM score (TMEM assembly)", "setting": "[4]; [6]", "result": "did not significantly affect"}]}]}
